Laboratory results as given in PubChem BioAssay (NCI).
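Following 48 hours of exposure in 96-well plates, responses at five concentrations were used to interpolate endpoints linearly. TGI denotes the concentration required for complete inhibition of growth.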

Legend:
Assay in all cases: NCI tumour cell line growth inhibition, 48 h
[1] = system: SW-620 colon
[2] = system: 786-0 renal
[3] = system: MOLT-4 leukemia
[4] = system: NCI-H226 lung
[5] = system: PC-3 prostate
[6] = system: SK-MEL-5 melanoma
[7] = system: RPMI-8226 leukemia
[8] = system: ACHN renal
[9] = system: HCT-15 colon
[10] = system: MCF7 breast
[11] = system: SR leukemia
[12] = system: IGROV1 ovarian
[13] = system: NCI-H460 lung
[14] = system: HL-60(TB) leukemia
[15] = system: MDA-MB-435
[16] = system: K-562 leukemia
[17] = system: A549 NSCLC
[18] = system: SNB-19 CNS
[19] = system: HOP-62 NSCLC
[20] = system: NCI-H522 lung
[21] = system: OVCAR-5 ovarian
[22] = system: CCRF-CEM leukemia
[23] = system: T-47D breast
[24] = system: SN12C renal
[25] = system: RXF 393 renal
[26] = system: EKVX NSCLC
[27] = system: BT-549 breast
[28] = system: HCT-116 colon
[29] = system: SK-MEL-28 melanoma
[30] = system: SNB-75 CNS
[31] = system: MALME-3M melanoma
[32] = system: HOP-92 NSCLC
[33] = system: CAKI-1 renal
[34] = system: TK-10 renal
[35] = system: A498 renal
[36] = system: HCC-2998 colon
[37] = system: DU-145 prostate
[38] = system: MDA-MB-231 breast
[39] = system: NCI-H23 lung
[40] = system: COLO 205 colon
[41] = system: M14 melanoma
[42] = system: SK-MEL-2 melanoma
[43] = system: SF-295 CNS
[44] = system: LOX IMVI melanoma
[45] = system: HT29 colon
[46] = system: U251 CNS
[47] = system: SF-268 CNS
[48] = system: MDA-N
[49] = system: SF-539 CNS
[50] = system: HS 578T breast
[51] = system: OVCAR-8 ovarian
[52] = system: UACC-62 melanoma
[53] = system: NCI/ADR-RES ovarian
[54] = system: OVCAR-3 ovarian
[55] = system: OVCAR-4 ovarian
[56] = system: UACC-257 melanoma
[57] = system: KM12 colon
[58] = system: UO-31 renal
[59] = system: SK-OV-3 ovarian

SMILES: CC(=O)c1cc2c(Br)cccc2oc1=O
- TGI [1]: > 100 µM
- TGI [2]: > 100 µM
- TGI [3]: > 100 µM
- TGI [4]: > 100 µM
- TGI [5]: > 100 µM
- TGI [6]: > 100 µM
- TGI [7]: > 100 µM
- TGI [8]: > 100 µM
- TGI [9]: > 100 µM
- TGI [10]: > 100 µM
- TGI [11]: > 100 µM
- TGI [12]: > 100 µM
- TGI [13]: > 100 µM
- TGI [14]: > 100 µM
- TGI [15]: > 100 µM
- TGI [16]: > 100 µM
- TGI [17]: > 100 µM
- TGI [18]: > 100 µM
- TGI [19]: > 100 µM
- TGI [20]: > 100 µM
- TGI [21]: > 100 µM
- TGI [22]: > 100 µM
- TGI [23]: > 100 µM
- TGI [24]: > 100 µM
- TGI [25]: > 100 µM
- TGI [26]: > 100 µM
- TGI [27]: > 100 µM
- TGI [28]: > 100 µM
- TGI [29]: > 100 µM
- TGI [30]: > 100 µM
- TGI [31]: > 100 µM
- TGI [32]: > 100 µM
- TGI [33]: > 100 µM
- TGI [34]: > 100 µM
- TGI [35]: > 100 µM
- TGI [36]: > 100 µM
- TGI [37]: > 100 µM
- TGI [38]: > 100 µM
- TGI [39]: > 100 µM
- TGI [40]: > 100 µM
- TGI [41]: > 100 µM
- TGI [42]: > 100 µM
- TGI [43]: > 100 µM
- TGI [44]: > 100 µM
- TGI [45]: > 100 µM
- TGI [46]: > 100 µM
- TGI [47]: > 100 µM
- TGI [48]: > 100 µM
- TGI [49]: > 100 µM
- TGI [50]: > 100 µM
- TGI [51]: > 100 µM
- TGI [52]: > 100 µM
- TGI [53]: > 100 µM
- TGI [54]: > 100 µM
- TGI [55]: > 100 µM
- TGI [56]: > 100 µM

SMILES: O=C(Nc1cc(Cl)c(I)c(Cl)c1)C(F)(F)F
- TGI [1]: > 100 µM
- TGI [2]: 74.4 µM
- TGI [3]: 82.7 µM
- TGI [4]: 66.8 µM
- TGI [5]: 83.8 µM
- TGI [6]: 36.1 µM
- TGI [7]: > 100 µM
- TGI [8]: > 100 µM
- TGI [9]: 45.9 µM
- TGI [10]: > 100 µM
- TGI [11]: 99.5 µM
- TGI [12]: > 100 µM
- TGI [13]: > 100 µM
- TGI [14]: 58.3 µM
- TGI [15]: > 100 µM
- TGI [16]: 81.8 µM
- TGI [18]: > 100 µM
- TGI [19]: > 100 µM
- TGI [20]: 42.2 µM
- TGI [21]: 83 µM
- TGI [22]: 66.4 µM
- TGI [23]: 97.6 µM
- TGI [24]: > 100 µM
- TGI [57]: 85.4 µM
- TGI [25]: 34.5 µM
- TGI [26]: > 100 µM
- TGI [27]: 63 µM
- TGI [28]: 71.2 µM
- TGI [29]: 74 µM
- TGI [30]: > 100 µM
- TGI [32]: 46.9 µM
- TGI [33]: 56.5 µM
- TGI [58]: 73.7 µM
- TGI [35]: 47.8 µM
- TGI [36]: 34.2 µM
- TGI [37]: > 100 µM
- TGI [38]: > 100 µM
- TGI [39]: 70.8 µM
- TGI [40]: 53.9 µM
- TGI [41]: 60.3 µM
- TGI [43]: > 100 µM
- TGI [45]: 37.4 µM
- TGI [46]: > 100 µM
- TGI [47]: > 100 µM
- TGI [48]: > 100 µM
- TGI [50]: 75.7 µM
- TGI [51]: 56.8 µM
- TGI [52]: 48.9 µM
- TGI [53]: > 100 µM
- TGI [59]: 58.9 µM
- TGI [54]: 81.2 µM
- TGI [55]: > 100 µM
- TGI [56]: > 100 µM

SMILES: COC(=O)C1(Cc2ccc3c(c2)CCC3)Cc2ccc3c(c2C1=O)CCC3 (stereo not drawn)
- TGI [1]: > 71.1 µM
- TGI [2]: > 91.3 µM
- TGI [3]: 36.5 µM
- TGI [4]: > 87.2 µM
- TGI [5]: > 95.2 µM
- TGI [6]: 28.2 µM
- TGI [7]: 52.7 µM
- TGI [8]: > 100 µM
- TGI [9]: > 40.5 µM
- TGI [10]: > 20.4 µM
- TGI [11]: 7.76 µM
- TGI [12]: > 100 µM
- TGI [13]: > 63.9 µM
- TGI [14]: 8.83 µM
- TGI [15]: 6.13 µM
- TGI [16]: > 100 µM
- TGI [17]: > 100 µM
- TGI [18]: > 100 µM
- TGI [19]: > 100 µM
- TGI [20]: 18.8 µM
- TGI [21]: > 100 µM
- TGI [22]: > 83.1 µM
- TGI [23]: > 68.6 µM
- TGI [24]: > 100 µM
- TGI [57]: > 100 µM
- TGI [25]: 22.7 µM
- TGI [26]: > 100 µM
- TGI [27]: > 46.1 µM
- TGI [28]: > 100 µM
- TGI [29]: > 100 µM
- TGI [30]: > 55.5 µM
- TGI [31]: > 63.8 µM
- TGI [32]: 54 µM
- TGI [33]: > 100 µM
- TGI [58]: > 100 µM
- TGI [34]: > 90.1 µM
- TGI [35]: 46.5 µM
- TGI [36]: 44.5 µM
- TGI [37]: > 100 µM
- TGI [38]: > 87.6 µM
- TGI [39]: > 71.6 µM
- TGI [40]: 9.16 µM
- TGI [41]: 33.1 µM
- TGI [42]: 15.4 µM
- TGI [43]: > 72.6 µM
- TGI [44]: > 65.3 µM
- TGI [45]: > 34.8 µM
- TGI [46]: > 69.6 µM
- TGI [47]: > 100 µM
- TGI [48]: 5.78 µM
- TGI [49]: 34.8 µM
- TGI [50]: 16.4 µM
- TGI [51]: > 100 µM
- TGI [52]: > 48.5 µM
- TGI [53]: 13.8 µM
- TGI [59]: > 100 µM
- TGI [54]: 52.8 µM
- TGI [55]: > 66.7 µM
- TGI [56]: > 100 µM
